# Laboratory results as given in patent publication US20240376099A1, “COMPOUNDS AND COMPOSITIONS AS INHIBITORS OF ENDOSOMAL TOLL-LIKE RECEPTORS” (Novartis AG, priority 2016, published 2024).
# Biological target: T1, TLR7 (Homo sapiens, UniProt Q9NYK1)
# T1 construct: Fresh blood was collected from normal human donors; endogenous in cells; host or cells: human PBMCs from fresh donor blood
# T1 sequence (Q9NYK1 27-1049): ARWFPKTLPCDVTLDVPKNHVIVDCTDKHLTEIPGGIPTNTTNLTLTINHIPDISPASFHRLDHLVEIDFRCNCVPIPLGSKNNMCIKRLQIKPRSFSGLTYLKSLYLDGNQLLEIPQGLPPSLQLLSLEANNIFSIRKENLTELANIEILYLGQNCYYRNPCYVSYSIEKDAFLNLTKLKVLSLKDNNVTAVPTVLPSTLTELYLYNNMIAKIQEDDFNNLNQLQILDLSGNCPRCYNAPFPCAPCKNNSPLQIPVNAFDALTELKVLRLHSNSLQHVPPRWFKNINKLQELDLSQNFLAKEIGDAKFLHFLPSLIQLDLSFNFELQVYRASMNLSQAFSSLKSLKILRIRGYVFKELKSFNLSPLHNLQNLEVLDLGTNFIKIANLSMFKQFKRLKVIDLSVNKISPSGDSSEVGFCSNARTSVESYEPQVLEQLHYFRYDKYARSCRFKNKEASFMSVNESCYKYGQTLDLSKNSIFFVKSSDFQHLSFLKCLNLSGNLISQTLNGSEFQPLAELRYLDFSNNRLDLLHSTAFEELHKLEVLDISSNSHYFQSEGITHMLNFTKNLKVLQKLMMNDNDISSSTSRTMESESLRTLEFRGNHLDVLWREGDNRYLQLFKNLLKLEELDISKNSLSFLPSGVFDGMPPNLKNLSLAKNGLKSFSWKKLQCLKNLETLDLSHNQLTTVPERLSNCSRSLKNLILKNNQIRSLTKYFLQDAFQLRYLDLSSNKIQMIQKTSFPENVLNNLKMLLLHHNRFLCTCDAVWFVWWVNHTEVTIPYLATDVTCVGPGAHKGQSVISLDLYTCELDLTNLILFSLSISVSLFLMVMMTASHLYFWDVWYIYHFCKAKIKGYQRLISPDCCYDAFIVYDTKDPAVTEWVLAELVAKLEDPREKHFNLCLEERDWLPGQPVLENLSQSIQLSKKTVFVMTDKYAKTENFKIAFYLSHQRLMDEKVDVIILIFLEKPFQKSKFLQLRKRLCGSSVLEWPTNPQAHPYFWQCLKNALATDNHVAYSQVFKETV
# Test: huPBMC TLR7 Antagonist IFNα Assay
# Assay type: cell-based
# Conditions: human PBMCs stimulated with ssRNA40 10 μg/mL (DOTAP), 14-16 hrs; IFNα2b AlphaLISA read-out
# Procedure, shortened: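 Human PBMCs from fresh donor blood (150,000 cells/well) stimulated 14–16 h at 37 °C with DOTAP-complexed ssRNA40 (final 1 μg/ml for TLR8, 10 μg/mL for TLR7) or ODN2216 (final 0.3 μM, TLR9), 0.25% DMSO, ten-point 1/3 compound dilutions. Supernatant IL-6 read by HTRF (TLR8); IFNα by IFNα2b AlphaLISA (TLR7/TLR9).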
row,SMILES,IC50 [nM]
1,"Cc1nc(N2CCc3c(c(C)nn3CC34CCC(NC(=O)[C@@H]5CNCCO5)(CC3)CC4)C2)c2c(n1)c(C)nn2C [compound 34, (S)-N-(4-((3-methyl-5-(1,3,5-trimethyl-1H-pyrazolo[4,3-d]pyrimidin-7-yl)-4,5,6,7-tetrahydro-1H-pyrazolo[4,3-c]pyridin-1-yl)methyl)bicyclo[2.2.2]octan-1-yl)morpholine-2-carboxamide]",13
2,"Cc1nc(N2CCc3c(c(C)nn3CC34CCC(NC(=O)[C@H]5CNCCO5)(CC3)CC4)C2)c2c(n1)c(C)nn2C [compound 36, (R)-N-(4-((3-methyl-5-(1,3,5-trimethyl-1H-pyrazolo[4,3-d]pyrimidin-7-yl)-4,5,6,7-tetrahydro-1H-pyrazolo[4,3-c]pyridin-1-yl)methyl)bicyclo[2.2.2]octan-1-yl)morpholine-2-carboxamide]",7
3,"Cc1nc(N2CCc3c(c(C)nn3CC34CCC(N5CCOCC5)(CC3)CC4)C2)c2c(C)noc2n1 [compound 37, 3,6-dimethyl-4-(3-methyl-1-((4-morpholinobicyclo[2.2.2]octan-1-yl)methyl)-6,7-dihydro-1H-pyrazolo[4,3-c]pyridin-5(4H)-yl)isoxazolo[5,4-d]pyrimidine]",159
4,"Cc1nc(N2CCc3c(c(C)nn3CC34CCC(N5CCCCC5)(CC3)CC4)C2)c2c(n1)c(C)nn2C [compound 38, 1,3,5-trimethyl-7-(3-methyl-1-((4-(piperidin-1-yl)bicyclo[2.2.2]octan-1-yl)methyl)-6,7-dihydro-1H-pyrazolo[4,3-c]pyridin-5(4H)-yl)-1H-pyrazolo[4,3-d]pyrimidine]",42
5,"Cc1nc(N2CCc3c(c(C)nn3CC34CCC(N5CCCCC5)(CC3)CC4)C2)c2cnn(C)c2n1 [compound 39, 1,6-dimethyl-4-(3-methyl-1-((4-(piperidin-1-yl)bicyclo[2.2.2]octan-1-yl)methyl)-6,7-dihydro-1H-pyrazolo[4,3-c]pyridin-5(4H)-yl)-1H-pyrazolo[3,4-c]pyrimidine]",60
6,"[2H]C([2H])([2H])N(C([2H])([2H])[2H])C12CCC(Cn3nc(C)c4c3CCN(c3nc(C)nc5c(C)nn(C)c35)C4)(CC1)CC2 [compound 40, 4-((3-methyl-5-(1,3,5-trimethyl-1H-pyrazolo[4,3-d]pyrimidin-7-yl)-4,5,6,7-tetrahydro-1H-pyrazolo[4,3-c]pyridin-1-yl)methyl)-N,N-bis(trideuteromethyl)bicyclo[2.2.2]octan-1-amine]",70
7,"Cc1nn(CC23CCC(N)(CC2)CC3)c2c1CN(c1ccnc3[nH]ncc13)CC2 [compound 41, 4-((3-methyl-5-(1H-pyrazolo[3,4-b]pyridin-4-yl)-4,5,6,7-tetrahydro-1H-pyrazolo[4,3-c]pyridin-1-yl)methyl)bicyclo[2.2.2]octan-1-amine]",6
8,"Cc1c2c(nn1CC13CCC(N)(CC1)CC3)CCN(c1ccnc3[nH]ncc13)C2 [compound 42, 4-((3-methyl-5-(1H-pyrazolo[3,4-b]pyridin-4-yl)-4,5,6,7-tetrahydro-2H-pyrazolo[4,3-c]pyridin-2-yl)methyl)bicyclo[2.2.2]octan-1-amine]",17
9,"Cc1cc(N2CCc3c(c(C)nn3CC34CCC(N)(CC3)C4)C2)c2cnn(C)c2n1 [compound 44, 4-((5-(1,6-dimethyl-1H-pyrazolo[3,4-b]pyridin-4-yl)-3-methyl-4,5,6,7-tetrahydro-1H-pyrazolo[4,3-c]pyridin-1-yl)methyl)bicyclo[2.2.1]heptan-1-amine]",38
10,"Cc1cc(N2CCc3c(c(C(F)(F)F)nn3CC34CCC(N)(CC3)CC4)C2)c2cnn(C)c2n1 [compound 45, 4-((5-(1,6-dimethyl-1H-pyrazolo[3,4-b]pyridin-4-yl)-3-(trifluoromethyl)-4,5,6,7-tetrahydro-1H-pyrazolo[4,3-c]pyridin-1-yl)methyl)bicyclo[2.2.2]octan-1-amine]",38
11,"Cc1cc(N2CCc3c(c(C)nn3CC34CCC(NCC(=O)N5CCCCC5)(CC3)CC4)C2)c2cnn(C)c2n1 [compound 99, 2-((4-((5-(1,6-dimethyl-1H-pyrazolo[3,4-b]pyridin-4-yl)-3-methyl-4,5,6,7-tetrahydro-1H-pyrazolo[4,3-c]pyridin-1-yl)methyl)bicyclo[2.2.2]octan-1-yl)amino)-1-(piperidin-1-yl)ethanone]",40
12,"Cc1cc(N2CCc3c(c(C)nn3CC34CCC(NC(=O)CN5CCCC5)(CC3)CC4)C2)c2cnn(C)c2n1 [compound 100, N-(4-((5-(1,6-dimethyl-1H-pyrazolo[3,4-b]pyridin-4-yl)-3-methyl-4,5,6,7-tetrahydro-1H-pyrazolo[4,3-c]pyridin-1-yl)methyl)bicyclo[2.2.2]octan-1-yl)-2-(pyrrolidin-1-yl)acetamide]",5
13,"COCCNC12CCC(Cn3nc(C)c4c3CCN(c3cc(C)nc5c3cnn5C)C4)(CC1)OC2 [compound 102, 1-((5-(1,6-dimethyl-1H-pyrazolo[3,4-b]pyridin-4-yl)-3-methyl-4,5,6,7-tetrahydro-1H-pyrazolo[4,3-c]pyridin-1-yl)methyl)-N-(2-methoxyethyl)-2-oxabicyclo[2.2.2]octan-4-amine]",22
14,"Cc1cc(N2CCc3c(c(C)nn3CC34CCC(NC(=O)CCN(C)C)(CC3)CC4)C2)c2cnn(C)c2n1 [compound 105, N-(4-((5-(1,6-dimethyl-1H-pyrazolo[3,4-b]pyridin-4-yl)-3-methyl-4,5,6,7-tetrahydro-1H-pyrazolo[4,3-c]pyridin-1-yl)methyl)bicyclo[2.2.2]octan-1-yl)-3-(dimethylamino)propanamide]",14
15,"Cc1cc(N2CCc3c(c(C)nn3CC34CCC(NCC(=O)N5CCCC5)(CC3)CC4)C2)c2cnn(C)c2n1 [compound 106, 2-((4-((5-(1,6-dimethyl-1H-pyrazolo[3,4-b]pyridin-4-yl)-3-methyl-4,5,6,7-tetrahydro-1H-pyrazolo[4,3-c]pyridin-1-yl)methyl)bicyclo[2.2.2]octan-1-yl)amino)-1-(pyrrolidin-1-yl)ethanone]",63
16,"Cc1cc(N2CCc3c(c(C)nn3CC34CCC(N5CCO[C@H](C)C5)(CC3)CC4)C2)c2cnn(C)c2n1 [compound 107, (R)-4-(4-((5-(1,6-dimethyl-1H-pyrazolo[3,4-b]pyridin-4-yl)-3-methyl-4,5,6,7-tetrahydro-1H-pyrazolo[4,3-c]pyridin-1-yl)methyl)bicyclo[2.2.2]octan-1-yl)-2-methylmorpholine]",11
17,"Cc1cc(N2CCc3c(c(C)nn3CC34CCC(N5CCO[C@@H](C)C5)(CC3)CC4)C2)c2cnn(C)c2n1 [compound 109, (S)-4-(4-((5-(1,6-dimethyl-1H-pyrazolo[3,4-b]pyridin-4-yl)-3-methyl-4,5,6,7-tetrahydro-1H-pyrazolo[4,3-c]pyridin-1-yl)methyl)bicyclo[2.2.2]octan-1-yl)-2-methylmorpholine]",12
18,"Cc1cc(N2CCc3c(c(C)nn3CC34CCC(N5C[C@@H](C)O[C@@H](C)C5)(CC3)CC4)C2)c2cnn(C)c2n1 [compound 110, (2S,6R)-4-(4-((5-(1,6-dimethyl-1H-pyrazolo[3,4-b]pyridin-4-yl)-3-methyl-4,5,6,7-tetrahydro-1H-pyrazolo[4,3-c]pyridin-1-yl)methyl)bicyclo[2.2.2]octan-1-yl)-2,6-dimethylmorpholine]",7
19,"Cc1cc(N2CCc3c(c(C)nn3CC34CCC(N5C[C@H](C)O[C@@H](C)C5)(CC3)CC4)C2)c2cnn(C)c2n1 [compound 111, (2S,6S)-4-(4-((5-(1,6-dimethyl-1H-pyrazolo[3,4-b]pyridin-4-yl)-3-methyl-4,5,6,7-tetrahydro-1H-pyrazolo[4,3-c]pyridin-1-yl)methyl)bicyclo[2.2.2]octan-1-yl)-2,6-dimethylmorpholine]",28
20,"Cc1cc(N2CCc3c(c(C)nn3CC34CCC(NCC5CCC5)(CC3)CO4)C2)c2cnn(C)c2n1 [compound 112, N-(cyclobutylmethyl)-1-((5-(1,6-dimethyl-1H-pyrazolo[3,4-b]pyridin-4-yl)-3-methyl-4,5,6,7-tetrahydro-1H-pyrazolo[4,3-c]pyridin-1-yl)methyl)-2-oxabicyclo[2.2.2]octan-4-amine]",24
